Data: US6921840B1 (The Trustees of the University of Pennsylvania, priority 1999, dated 2005)
“And” between values parts separate entries of the source, which are not always exact repeats. Equal values may be shown once. Read-outs that look alike come from different tables or passages of the source.

Assays:
[1] = target: T1, serotonin uptake (SERT) (Rattus norvegicus, UniProt P31652); conditions: taken from Ferris et al. 1995; read-out: IC50 for inhibition on substrate uptake, SERT; cited from earlier work
T1 construct: host or cells: rat brain synaptosomes
T1 sequence (P31652 whole entry): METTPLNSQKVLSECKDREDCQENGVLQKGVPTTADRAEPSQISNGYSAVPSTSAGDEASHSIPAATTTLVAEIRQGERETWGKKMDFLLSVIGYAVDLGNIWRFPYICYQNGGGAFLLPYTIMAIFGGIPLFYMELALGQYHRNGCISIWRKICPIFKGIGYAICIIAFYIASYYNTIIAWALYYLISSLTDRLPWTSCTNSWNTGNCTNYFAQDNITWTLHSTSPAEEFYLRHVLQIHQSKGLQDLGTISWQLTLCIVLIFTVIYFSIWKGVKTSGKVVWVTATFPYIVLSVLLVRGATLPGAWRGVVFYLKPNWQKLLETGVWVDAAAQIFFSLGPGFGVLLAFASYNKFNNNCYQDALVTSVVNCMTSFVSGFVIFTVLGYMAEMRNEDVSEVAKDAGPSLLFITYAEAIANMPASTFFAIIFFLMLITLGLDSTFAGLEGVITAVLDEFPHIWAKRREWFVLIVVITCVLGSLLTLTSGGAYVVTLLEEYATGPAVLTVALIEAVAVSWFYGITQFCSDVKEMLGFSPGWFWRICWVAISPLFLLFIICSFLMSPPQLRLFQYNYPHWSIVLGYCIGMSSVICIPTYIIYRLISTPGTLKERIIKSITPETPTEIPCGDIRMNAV

[2] = target: DAT (Rattus norvegicus, UniProt P23977); conditions: taken from Ferris et al. 1995; read-out: IC50 for inhibition on substrate uptake, DAT; cited from earlier work
Sequence of DAT (P23977 whole entry): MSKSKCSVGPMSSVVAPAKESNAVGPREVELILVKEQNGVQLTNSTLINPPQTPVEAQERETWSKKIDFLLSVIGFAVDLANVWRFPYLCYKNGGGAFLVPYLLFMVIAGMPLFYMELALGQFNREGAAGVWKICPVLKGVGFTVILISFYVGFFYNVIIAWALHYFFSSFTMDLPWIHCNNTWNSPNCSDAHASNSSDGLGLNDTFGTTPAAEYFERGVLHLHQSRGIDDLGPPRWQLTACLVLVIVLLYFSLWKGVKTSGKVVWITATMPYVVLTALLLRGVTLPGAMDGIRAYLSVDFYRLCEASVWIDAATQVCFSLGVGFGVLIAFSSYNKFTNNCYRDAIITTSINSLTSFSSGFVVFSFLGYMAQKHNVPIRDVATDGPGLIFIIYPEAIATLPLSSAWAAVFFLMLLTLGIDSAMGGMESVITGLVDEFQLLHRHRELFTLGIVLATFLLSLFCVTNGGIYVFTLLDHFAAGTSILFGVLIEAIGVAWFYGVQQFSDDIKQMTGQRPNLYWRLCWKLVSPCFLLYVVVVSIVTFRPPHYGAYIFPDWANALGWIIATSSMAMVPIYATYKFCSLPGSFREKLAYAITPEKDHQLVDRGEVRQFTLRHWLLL

[3] = target: T2, norepinephrine uptake (NET) (Rattus norvegicus, UniProt Q63380); conditions: cited from earlier work
T2 construct: host or cells: rat brain synaptosomes
T2 sequence (Q63380 1-617): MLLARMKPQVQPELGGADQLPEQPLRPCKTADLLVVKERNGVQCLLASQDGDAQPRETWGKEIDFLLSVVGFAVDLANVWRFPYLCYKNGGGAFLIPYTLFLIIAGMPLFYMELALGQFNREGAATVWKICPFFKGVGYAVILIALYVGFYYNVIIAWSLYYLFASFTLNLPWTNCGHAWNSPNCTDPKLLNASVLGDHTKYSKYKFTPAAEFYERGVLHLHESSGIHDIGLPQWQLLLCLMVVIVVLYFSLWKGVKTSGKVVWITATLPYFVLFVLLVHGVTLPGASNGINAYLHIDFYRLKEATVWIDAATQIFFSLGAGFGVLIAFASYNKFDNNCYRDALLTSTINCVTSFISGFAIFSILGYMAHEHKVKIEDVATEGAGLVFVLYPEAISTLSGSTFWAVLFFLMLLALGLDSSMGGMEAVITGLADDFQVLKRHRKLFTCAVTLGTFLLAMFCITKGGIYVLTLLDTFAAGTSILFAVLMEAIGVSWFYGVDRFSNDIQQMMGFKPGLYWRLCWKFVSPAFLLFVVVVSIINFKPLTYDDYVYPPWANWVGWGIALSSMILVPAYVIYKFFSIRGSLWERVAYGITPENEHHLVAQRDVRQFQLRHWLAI

[4] = system: serotonin transporters; experiment: SPECT imaging in baboons; conditions: baboon, 120 minutes post-i.v. injection
Text: The acquisition of SPECT images were obtained by a triple-head gamma camera equipped with ultra high resolution fan-beam collimators (Picker Prism 3000). […] The projection images were reconstructed by filtered-back projection. Then, a 3D, low pass Butterworth filter was applied. For uniform attenuation correction, Chang's first order method was used.

[5] = In vitro stability of radioiodinated ligand; assay type: physicochemical
[6] = at 2 to 6 hr, Biegon et al. 1993; cited from earlier work
[7] = target: T3, SERT (Rattus norvegicus, UniProt P31652)
T3 sequence (P31652 whole entry): as the sequence (P31652 whole entry) above
Method: At 60 min post i.v. injection, the animals were sacrificed by cardiac excision while under ether anesthesia. The brains were rapidly removed, placed in embedding medium (Tissue Tek, Miles Laboratory, Elkhart, Ind.) and frozen with powdered dry ice. After reaching equilibrium at −20° C. consecutive 20 μm coronal sections were cut on a cryostat microtome (Hacker Instruments, Fairfield, N.J.) thaw-mounted on microscope slides, and air-dried at room temperature. […] The microscale standards were calibrated with tissue mash standards for the value conversion to nCi/mg protein. The exposed film was developed by a Kodak automatic film processor. […] The brain sections of the pretreated rats were processed following the same procedures described above for the normal untreated rats.

[8] = target: T3, SERT; experiment: [125I]IDAM saturation binding to rat frontal cortical membrane homogenates; set-up: The frontal cortex of rat brain were dissected and homogenized in 30 volumes of buffer; from tissue; host or cells: rat frontal cortex membrane homogenates (male Sprague-Dawley rats, control and PCA-lesioned)
Method: The homogenates were centrifuged at 20,000 g for 20 min. The resulting pellets were then re-suspended and recentrifuged. The final pellets were suspended in the same buffer and used for in vitro binding assays.
Binding assays were performed in glass tubes (12×75 mm) with a final volume of 0.5 ml.
Various inhibitors were serially diluted with the buffer containing 0.1% BSA to overcome the stickiness and loss due to dilution. […] Incubation was carried out for 60 min at room temperature and then terminated by separation of bound from free radioligand by filtration through glass fiber filters (Schleicher & Schuell No. 25, Keene, N.H.) presoaked with 1% polyethylenimine. The filters were then washed three times with 3 ml of ice-cold […] Tris buffer and counted in a gamma counter (Packard 5000) with 70% efficiency. To study the effect of […], the homogenates were prepared in a sodium-free 50 mM Tris-HCl/5 mM KCl buffer.
Ten rats were divided into two-groups, and they were injected daily with PCA (8 mg/kg, i.p.) or saline for 3 consecutive days, respectively. The animals were sacrificed 5 days after the last injection and the frontal cortical membrane homogenates were prepared.

[9] = Partition coefficient octanol/buffer; assay type: physicochemical; conditions: n-octanol and phosphate buffer, pH 7.4
[10] = Biodistribution in rats after i.v. injection of radioactive tracer; assay type: in vivo, rat
Method: Three or four rats per group were used for each biodistribution study. While under ether anesthesia, 0.2 ml of a saline solution containing 10 μCi of radioactive tracer was injected into the femoral vein. The rats were sacrificed at the time indicated by cardiac excision while under ether anesthesia. Organs of interest were removed and weighed, and the radioactivity was counted using a Packard automatic gamma counter (Model 5000). The percent dose per organ was calculated by a comparison of the tissue counts to counts of 1% of the initial dose (100 times diluted aliquots of the injected material) measured at the same time.
Regional brain distribution in rats was measured after an i.v. injection of the radioactive tracer. Samples from different brain regions [cortex (CX), striatum (ST), hippocampus (HP), cerebellum (CB) and hypothalamus (HY)] were dissected, weighed and counted. The percentage dose/g of each sample was calculated by comparing sample counts with the counts of the diluted initial dose described above. The ratio of specific binding (SB) in each region was obtained by dividing the difference of each region from the cerebellum (percentage dose/g) with that of the cerebellum [(region-CB)/CB].

[11] = Metabolite analysis of brain tissue; assay type: in vivo, rat; conditions: rats, 60 min post-injection
Method: Sixty minutes after an i.v. injection of 200-300 μCi of [^125I]IDAM into two male rats, the areas corresponding to the hypothalamus region were dissected individually. The tissues were then homogenized in 1.5 ml of 50 mM Tris buffer (pH 7.4) and the homogenates were extracted with ethyl acetate (3×1.5 ml) in the presence of the non-radioactive IDAM (100 μg). The extracted ethyl acetate layers were evaporated to near dryness and the purity of [^125I]IDAM in the condensed extracts was analyzed by HPLC (PRP-1 column; solvent: CH3CN/DMGA: 90/10; flow rate: 1 ml/min). Control samples were performed by adding 5-10 μCi of [^125I]IDAM to hypothalamus tissues followed by the same procedures used for the experimental samples to determine the extraction efficiency.

[12] = PCA-lesioned rats, frontal cortical membranes
[13] = control rats, frontal cortical membranes

## CN(C)Cc1ccccc1Sc1ccc(Cl)cc1CO [403U76, 5-chloro-2-((2-((dimethyl-amino)methyl)phenyl)thio)benzyl alcohol]
[1]
  IC50: 2.1 ± 0.4 nM
[2]
  IC50: > 1000 nM
[3]; rat brain synaptosomes
  Ki: 55 nM
[3]; taken from Ferris et al. 1995, read-out: IC50 for inhibition on substrate uptake, NET
  IC50: 55 ± 10 nM

## CN(C)Cc1ccccc1Sc1ccc(I)cc1CO [[^123I]IDAM]
[4]
  ratio of MB/CER uptake: 2.4
[5]; prolonged standing (>20 hr) at 0-4° C. in saline solution
  in vitro stability: no decomposition observed

## O=[N+]([O-])c1ccc2nc(N3CCNCC3)ccc2c1I [[^123I]5-I-6-NO2-quipazine, 5-iodo-6-nitroquipazine]
[6]
  specific regional binding ratio, hypothalamus: 4.0

## CN(C)Cc1ccccc1Sc1ccc([125I])cc1CO [[^125I]IDAM]
[7]; HP
  nonspecific binding (non-paroxetine blockable): more than 70%
[7]; hippocampal regions and several cortical regions
  percentage of specific binding (paroxetine blockable): less than 30%
[7]; interperduncular nucleus, median raphe and dorsomedial hypothalamus
  percentage of specific binding (paroxetine blockable): more than 95%
[8]; [12]
  Bmax of [125I]IDAM binding: 20±7 fmol/mg protein
  Kd: 0.05 ± 0.15 nM
  Kd of [125I]IDAM binding: no significant change
[8]; after destruction of serotonergic neurons by PCA
  loss of [125I]IDAM binding to rat cortical membranes: 90%
[8]; at Kd value, rat frontal cortical membranes
  nonspecific binding: < 5%
[8]; [13]
  Bmax of [125I]IDAM binding: 272±30 fmol/mg protein
  Kd: 0.25 nM and 0.2 nM
[5]; in 50% ethanol for up to two months after radioiodination
  stability: radiochemical purity determined by HPLC: > 95%
[9]
  partition coefficient (PC): 473
[9]; read-out: partition coefficient (PC) (converted)
  logD: 2.67
[10]
  half-time of clearance from the brain regions: less than 60 min
[10]; 2 min
  % dose/g CEREBELLUM: 1.377 ± 0.479 % dose/g
  % dose/g CORTEX: 2.353 ± 0.444 % dose/g
  % dose/g HIPPOCAMPUS: 1.485 ± 0.263 % dose/g
  % dose/g HYPOTHALAMUS: 1.782 ± 0.412 % dose/g
  % dose/g STRIATUM: 1.377 ± 0.344 % dose/g
  % dose/organ BLOOD: 7.619 ± 0.41 % dose/organ
  % dose/organ BRAIN: 2.44 % dose/organ and 2.44 ± 0.34 % dose/organ
  % dose/organ HEART: 1.303 ± 0.10 % dose/organ
  % dose/organ KIDNEY: 6.54 ± 0.26 % dose/organ
  % dose/organ LIVER: 6.46 ± 1.18 % dose/organ
  % dose/organ LUNG: 10.42 ± 1.36 % dose/organ
  % dose/organ MUSCLE: 19.06 ± 8.51 % dose/organ
  % dose/organ SKIN: 3.27 ± 0.48 % dose/organ
  % dose/organ SPLEEN: 0.31 ± 0.08 % dose/organ
  SB: specific binding = (region-CB)/CB, CORTEX: 0.709
  SB: specific binding = (region-CB)/CB, HIPPOCAMPUS: 0.079
  SB: specific binding = (region-CB)/CB, HYPOTHALAMUS: 0.294
  SB: specific binding = (region-CB)/CB, STRIATUM: 0.000
[10]; 2 min post-injection
  total radioactivity recovered from the major organs: less than 60 % of total injected dose
[10]; 30 min
  % dose/g CEREBELLUM: 0.416 ± 0.045 % dose/g
  % dose/g CORTEX: 0.820 ± .0108 % dose/g
  % dose/g HIPPOCAMPUS: 0.832 ± 0.048 % dose/g
  % dose/g HYPOTHALAMUS: 0.918 ± 0.113 % dose/g
  % dose/g STRIATUM: 0.875 ± 0.086 % dose/g
  % dose/organ BLOOD: 7.63 ± 1.03 % dose/organ
  % dose/organ BRAIN: 1.174 ± 0.062 % dose/organ
  % dose/organ HEART: 0.27 ± 0.02 % dose/organ
  % dose/organ KIDNEY: 3.48 ± 0.643 % dose/organ
  % dose/organ LIVER: 4.709 ± 0.347 % dose/organ
  % dose/organ LUNG: 1.78 ± 0.08 % dose/organ
  % dose/organ MUSCLE: 16.27 ± 0.82 % dose/organ
  % dose/organ SKIN: 6.121 ± 0.536 % dose/organ
  % dose/organ SPLEEN: 0.279 ± 0.026 % dose/organ
  SB: specific binding = (region-CB)/CB, CORTEX: 0.972
  SB: specific binding = (region-CB)/CB, HIPPOCAMPUS: 1.002
  SB: specific binding = (region-CB)/CB, HYPOTHALAMUS: 1.208
  SB: specific binding = (region-CB)/CB, STRIATUM: 1.104
[10]; 60 min
  % dose/g CEREBELLUM: 0.153 ± 0.019 % dose/g
  % dose/g CORTEX: 0.310 ± 0.060 % dose/g
  % dose/g HIPPOCAMPUS: 0.355 ± 0.016 % dose/g
  % dose/g HYPOTHALAMUS: 0.422 ± 0.066 % dose/g
  % dose/g STRIATUM: 0.257 ± 0.042 % dose/g
  % dose/organ BLOOD: 6.380 ± 0.729 % dose/organ
  % dose/organ BRAIN: 0.50 % dose/organ and 0.503 ± 0.027 % dose/organ
  % dose/organ HEART: 0.187 ± 0.008 % dose/organ
  % dose/organ KIDNEY: 1.993 ± 0.351 % dose/organ
  % dose/organ LIVER: 4.120 ± 0.766 % dose/organ
  % dose/organ LUNG: 0.931 ± 0.086 % dose/organ
  % dose/organ MUSCLE: 6.775 ± 0.145 % dose/organ
  % dose/organ SKIN: 7.538 ± 0.127 % dose/organ
  % dose/organ SPLEEN: 0.167 ± 0.027 % dose/organ
  SB: specific binding = (region-CB)/CB, CORTEX: 1.024
  SB: specific binding = (region-CB)/CB, HIPPOCAMPUS: 1.313
  SB: specific binding = (region-CB)/CB, HYPOTHALAMUS: 1.75
  SB: specific binding = (region-CB)/CB, STRIATUM: 0.673
[10]; 120 min
  % dose/g CEREBELLUM: 0.053 ± 0.005 % dose/g
  % dose/g CORTEX: 0.89 ± 0.018 % dose/g
  % dose/g HIPPOCAMPUS: 0.134 ± 0.011 % dose/g
  % dose/g HYPOTHALAMUS: 0.142 ± 0.027 % dose/g
  % dose/g STRIATUM: 0.105 ± 0.052 % dose/g
  % dose/organ BLOOD: 4.160 ± 0.150 % dose/organ
  % dose/organ BRAIN: 0.17 % dose/organ and 0.168 ± 0.029 % dose/organ
  % dose/organ HEART: 0.114 ± 0.023 % dose/organ
  % dose/organ KIDNEY: 0.832 ± 0.071 % dose/organ
  % dose/organ LIVER: 2.722 ± 0.308 % dose/organ
  % dose/organ LUNG: 0.422 ± 0.055 % dose/organ
  % dose/organ MUSCLE: 4.714 ± 0.977 % dose/organ
  % dose/organ SKIN: 6.716 ± 1.304 % dose/organ
  % dose/organ SPLEEN: 0.066 ± 0.008 % dose/organ
  SB: specific binding = (region-CB)/CB, CORTEX: 0.674
  SB: specific binding = (region-CB)/CB, HIPPOCAMPUS: 1.524
  SB: specific binding = (region-CB)/CB, HYPOTHALAMUS: 1.679
  SB: specific binding = (region-CB)/CB, STRIATUM: 0.967
[10]; 240 min
  % dose/g CEREBELLUM: 0.012 ± 0.000 % dose/g
  % dose/g CORTEX: 0.017 ± 0.003 % dose/g
  % dose/g HIPPOCAMPUS: 0.020 ± 0.003 % dose/g
  % dose/g HYPOTHALAMUS: 0.022 ± 0.011 % dose/g
  % dose/g STRIATUM: 0.018 ± 0.002 % dose/g
  % dose/organ BLOOD: 2.246 ± 0.303 % dose/organ
  % dose/organ BRAIN: 0.033 ± 0.002 % dose/organ
  % dose/organ HEART: 0.048 ± 0.004 % dose/organ
  % dose/organ KIDNEY: 0.488 ± 0.065 % dose/organ
  % dose/organ LIVER: 1.469 ± 0.189 % dose/organ
  % dose/organ LUNG: 0.220 ± 0.018 % dose/organ
  % dose/organ MUSCLE: 2.818 ± 0.208 % dose/organ
  % dose/organ SKIN: 3.851 ± 0.073 % dose/organ
  % dose/organ SPLEEN: 0.024 ± 0.004 % dose/organ
  SB: specific binding = (region-CB)/CB, CORTEX: 0.475
  SB: specific binding = (region-CB)/CB, HIPPOCAMPUS: 0.705
  SB: specific binding = (region-CB)/CB, HYPOTHALAMUS: 0.865
  SB: specific binding = (region-CB)/CB, STRIATUM: 0.508
[11]
  unmetabolized tracer recovered from hypothalamus region: > 95%
